Data from patent US20110046227A1, “METHODS FOR CONCOMITANT ADMINISTRATION OF […] A SECOND ACTIVE AGENT” (MUTUAL PHARMACEUTICAL COMPANY, INC., priority 2009, published 2011).
Read-outs that look alike come from different tables or passages of the source.

Assay: Pharmacokinetic study in healthy adults of single vs. multiple oral doses of colchicine tablets (Example 1);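 also: Single-dose and multiple-dose periods given to the same subjects, with a 14-day washout between the two periods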
Type: in vivo, human
Settings: for Vd/F / half-life / Tmax / AUC(0-inf) / AUC(0-t) / AUC / Cmax: human, plasma, 0.6 mg; for Vd/F: Vd = CL/Ke, calculated from mean values, read-out: Vd/F, Mean (% CV)
[1] = multiple (b.i.d.) oral doses colchicine 0.6 mg for 10 days, Day 25, healthy adults N=13, plasma, median

Description: Subjects received a light breakfast served 60 minutes following dose administration in the morning and the evening dose was administered 90 minutes after an evening meal on Days 15 through 24 only. […] Study periods were separated by a 14-day washout. Following the single dose and the last dose of the multiple dose regimen (beginning on the mornings of Day 1 and Day 25, respectively), blood samples were collected (6 mL each) from each subject within 1 hour prior to dosing and after dose administration at study hours 0.5, 1, 1.5, 2, 3, 4, 6, 8, 10, 12, and 24 (while confined) and 36, 48, 72, and 96 (on an outpatient basis).
All subjects completed both dosing periods according to protocol.
In tables, the parameter CL/F denotes the apparent total body clearance after administration, calculated as Total Dose/Total AUC0-tau; and Vd/F denotes the apparent total volume of distribution after administration, calculated as Total Dose/(Total AUC∞×Kel).
Pharmacokinetic parameters referred to herein describe the in vivo characteristics of drug (or a metabolite or a surrogate marker for the drug) over time. These include plasma concentration (C), as well as Cmax, Cn, C24, Tmax, and AUC. “Cmax” is the measured plasma concentration of the active agent at the point of maximum, or peak, concentration. “Cmin” is the measured plasma concentration of the active agent at the point of minimum concentration. “Cn” is the measured plasma concentration of the active agent at about n hours after administration. […] The term “Tmax” refers to the time from drug administration until Cmax is reached. “AUC” is the area under the curve of a graph of the measured plasma concentration of an active agent vs. time, measured from one time point to another time point. […] Time t can be the last time point with measurable plasma concentration for an individual formulation. The AUC0-∞, AUC∞ or AUC0-inf is the calculated area under the curve of plasma concentration versus time from time 0 to time infinity.

Q: With `COc1cc2c(c(OC)c1O)-c1ccc(OC)c(=O)cc1[C@@H](NC(C)=O)CC2` [2-O-demethylcolchicine] as the compound, how does the metabolite plasma concentration (after colchicine 0.6 mg single and multiple doses, LOQ 0.2 ng/mL, 13 subjects) read?
A: The metabolite plasma concentration was < 0.2 ng/mL.

Q: With `COc1cc2c(c(OC)c1OC)-c1ccc(OC)c(=O)cc1[C@@H](NC(C)=O)CC2` [Colchicine, (−)-N-[(7S,12aS)-1,2,3,10-tetramethoxy-9-oxo-5,6,7,9-tetrahydrobenzo[a]heptalen-7-yl]-acetamide] as the compound, how does the “attainment of steady state (trough plasma concentrations)” value (0.6 mg b.i.d., most subjects) read?
A: The value was “by approximately the eighth day of dosing”.

Q: What about the elimination half-life (calculated following a single oral dose, stated not to be an accurate estimate) of the same compound?
A: The elimination half-life was “approximately 5 hours”.

Q: What about the secondary colchicine peak (following a single dose or upon multiple dosing, individual subject data) of the same compound?
A: The secondary colchicine peak was “no subject experienced a secondary colchicine peak”.

Q: What about the “apparent volume of distribution” value (healthy adults, oral, single dose) of the same compound?
A: The value was 540 L.

Q: And the Vd/F (oral, colchicine 0.6 mg b.i.d. × 10 days, Day 25)?
A: The Vd/F was 1150 L.

Q: And the Vd/F (oral, colchicine 0.6-mg single dose, Day 1, N=13)?
A: Its Vd/F is 341 L.

Q: And the half-life (oral, repeated dosing 0.6 mg b.i.d., read-out: terminal elimination half life (converted))?
A: Its half-life is 26.6 h.

Q: What about the half-life (po, multiple (b.i.d.) oral doses colchicine 0.6 mg for 10 days, Day 25, healthy adults N=13, mean, read-out: T1/2, MEAN (converted)) of the same compound?
A: Its half-life is 26.6 h.

Q: What about the Tmax (po, multiple (b.i.d.) oral doses colchicine 0.6 mg for 10 days, Day 25, healthy adults N=13, mean, read-out: Tmax, MEAN) of the same compound?
A: The Tmax was 1.31 h.

Q: What about the half-life (po, multiple (b.i.d.) oral doses colchicine 0.6 mg for 10 days, Day 25, healthy adults N=13, median, read-out: T1/2, MEDIAN (converted)) of the same compound?
A: Its half-life is 26.5 h.

Q: And the Tmax (po, multiple (b.i.d.) oral doses colchicine 0.6 mg for 10 days, Day 25, healthy adults N=13, median, read-out: Tmax, MEDIAN)?
A: The Tmax was 1 h.

Q: What about the AUC(0-inf) (po, multiple (b.i.d.) oral doses colchicine 0.6 mg for 10 days, Day 25, healthy adults N=13, plasma, mean, read-out: AUC0-inf, MEAN) of the same compound?
A: The AUC(0-inf) was 54.2 ng·h/mL.

Q: And the AUC(0-t) (po, multiple (b.i.d.) oral doses colchicine 0.6 mg for 10 days, Day 25, healthy adults N=13, plasma, mean, read-out: AUC0-t, MEAN)?
A: The AUC(0-t) was 43.6 ng·h/mL.

Q: What about the AUC (po, multiple (b.i.d.) oral doses colchicine 0.6 mg for 10 days, Day 25, healthy adults N=13, plasma, mean, read-out: AUC0-τ, MEAN) of the same compound?
A: Its AUC is 20.4 ng·h/mL.

Q: And the Cmax (po, multiple (b.i.d.) oral doses colchicine 0.6 mg for 10 days, Day 25, healthy adults N=13, plasma, mean, read-out: Cmax, MEAN)?
A: The Cmax was 3.55 ng/mL.

Q: And the AUC(0-inf) (po, multiple (b.i.d.) oral doses colchicine 0.6 mg for 10 days, Day 25, healthy adults N=13, plasma, median, read-out: AUC0-inf, MEDIAN)?
A: Its AUC(0-inf) is 54.1 ng·h/mL.

Q: What about the AUC(0-t) (po, multiple (b.i.d.) oral doses colchicine 0.6 mg for 10 days, Day 25, healthy adults N=13, plasma, median, read-out: AUC0-t, MEDIAN) of the same compound?
A: The AUC(0-t) was 41.9 ng·h/mL.

Q: And the AUC (po, multiple (b.i.d.) oral doses colchicine 0.6 mg for 10 days, Day 25, healthy adults N=13, plasma, median, read-out: AUC0-τ, MEDIAN)?
A: Its AUC is 20.4 ng·h/mL.

Q: And the Cmax (po, multiple (b.i.d.) oral doses colchicine 0.6 mg for 10 days, Day 25, healthy adults N=13, plasma, median, read-out: Cmax, MEDIAN)?
A: The Cmax was 3.73 ng/mL.

Q: What about the half-life (po, single oral dose colchicine 0.6 mg, healthy adults N=13, mean, read-out: T1/2, MEAN (converted)) of the same compound?
A: Its half-life is 4.95 h.

Q: And the half-life (po, single oral dose colchicine 0.6 mg, healthy adults N=13, median, read-out: T1/2, MEDIAN (converted))?
A: The half-life was 3.48 h.

Q: And the Tmax (po, single oral dose colchicine 0.6 mg, healthy adults N=13, median, read-out: Tmax, MEDIAN)?
A: Its Tmax is 1.5 h.

Q: And the AUC(0-inf) (po, single oral dose colchicine 0.6 mg, healthy adults N=13, plasma, mean, read-out: AUC0-inf, MEAN)?
A: The AUC(0-inf) was 12.3 ng·h/mL.

Q: And the AUC(0-t) (po, single oral dose colchicine 0.6 mg, healthy adults N=13, plasma, mean, read-out: AUC0-t, MEAN)?
A: The AUC(0-t) was 10.5 ng·h/mL.

Q: And the Cmax (po, single oral dose colchicine 0.6 mg, healthy adults N=13, plasma, mean, read-out: Cmax, MEAN)?
A: Its Cmax is 2.45 ng/mL.

Q: And the AUC(0-inf) (po, single oral dose colchicine 0.6 mg, healthy adults N=13, plasma, median, read-out: AUC0-inf, MEDIAN)?
A: Its AUC(0-inf) is 11.5 ng·h/mL.

Q: What about the AUC(0-t) (po, single oral dose colchicine 0.6 mg, healthy adults N=13, plasma, median, read-out: AUC0-t, MEDIAN) of the same compound?
A: The AUC(0-t) was 10.6 ng·h/mL.

Q: And the Cmax (po, single oral dose colchicine 0.6 mg, healthy adults N=13, plasma, median, read-out: Cmax, MEDIAN)?
A: The Cmax was 2.48 ng/mL.

Q: And the “Kel, MEAN” value (multiple (b.i.d.) oral doses colchicine 0.6 mg for 10 days, Day 25, healthy adults N=13, mean)?
A: Its value is 0.0267 h⁻¹.

Q: What about the “Kel, MEDIAN” value (multiple (b.i.d.) oral doses colchicine 0.6 mg for 10 days, Day 25, healthy adults N=13, median) of the same compound?
A: The value was 0.0261 h⁻¹.

Q: And the “Cave, MEAN” value (multiple (b.i.d.) oral doses colchicine 0.6 mg for 10 days, Day 25, healthy adults N=13, plasma, mean)?
A: Its value is 1.69722 ng/mL.

Q: What about the “Cave, MEDIAN” value [1] of the same compound?
A: The value was 1.70192 ng/mL.

Q: What about the “Cmin, MEDIAN” value [1] of the same compound?
A: Its value is 0.9035 ng/mL.

Q: And the “mean Cmin concentration” value (observed on Day 25, 0.6 mg b.i.d. steady state regimen)?
A: The value was 0.907 ng/mL.

Q: What about the “plasma concentrations quantifiable after a single dose” value (single dose 0.6 mg, 24 hours post-dose) of the same compound?
A: The value was “no longer quantifiable 24 hours post-dose in all but 1 subject”.

Q: What about the “Kel, MEAN” value (single oral dose colchicine 0.6 mg, healthy adults N=13, mean) of the same compound?
A: Its value is 0.1829 h⁻¹.

Q: What about the “Kel, MEDIAN” value (single oral dose colchicine 0.6 mg, healthy adults N=13, median) of the same compound?
A: Its value is 0.1992 h⁻¹.

Q: What about the “Cmin prior to the morning dose higher than Cmin prior to the evening dose” value (steady state, Day 23 and Day 24) of the same compound?
A: Its value is “approximately 12%”.
